Data as given in patent publication US6419962B1, “External skin treatment composition” (Shiseido Company, Ltd., priority 1996, dated 2002).

Assay: Moisture retention effect (coefficient of rate of moisture evaporation from weight change of sample)
Format: physicochemical
Settings: 50 wt % aqueous solution
Method: The moisture retention effect of unicellularized carrot ([…]) was studied in comparison with water, glycerin ([…]), a methanol extract of carrot ([…]), and DPG (dipropylene glycol) ([…]).
That is, 50 μl each of the above samples was placed on a chemical balance placed in a room held to 22° C. and a dry humidity of 45%. The change in weight was measured every three minutes for seven times in total. From the results, the coefficient of the rate of moisture evaporation in the sample (coefficient k of rate of moisture evaporation found as dW/dt=kW where the amount of moisture is W and the elapsed time is t, that is, logW=kt+C (C is a constant)) was calculated. […]
Note that the method of study of this moisture retention effect was the same as the method used in the above Test Example A2. […]
Note that the method of study of the moisture retention effect was the same as the method performed in the above Test Example A2.
The moisture retention effect of unicellularized iris rhizome was studied in comparison with purified water, glycerol, and an ethanol extract of iris rhizome.
That is, with the exception of the purified water, a 50 wt % aqueous solution was prepared and the coefficient of the moisture evaporation rate was found in the same way as the study of the moisture retention effect of unicellularized carrot (Test Example A2). […]

OCC(O)CO [Glycerol]
Coefficient of moisture evaporation rate: −0.0230
